Laboratory results taken from ChEMBL document CHEMBL1131296 (J Med Chem, 1998).

Tests used:
[1] = target: T1, Alpha-1A adrenergic receptor (Rattus norvegicus, UniProt P43140); assay: Antagonism of the norepinephrine induced contraction of rat isolated prostatic vas deferens.; type: functional; settings: read-out: pA2 (converted)
T1 sequence (P43140 whole entry): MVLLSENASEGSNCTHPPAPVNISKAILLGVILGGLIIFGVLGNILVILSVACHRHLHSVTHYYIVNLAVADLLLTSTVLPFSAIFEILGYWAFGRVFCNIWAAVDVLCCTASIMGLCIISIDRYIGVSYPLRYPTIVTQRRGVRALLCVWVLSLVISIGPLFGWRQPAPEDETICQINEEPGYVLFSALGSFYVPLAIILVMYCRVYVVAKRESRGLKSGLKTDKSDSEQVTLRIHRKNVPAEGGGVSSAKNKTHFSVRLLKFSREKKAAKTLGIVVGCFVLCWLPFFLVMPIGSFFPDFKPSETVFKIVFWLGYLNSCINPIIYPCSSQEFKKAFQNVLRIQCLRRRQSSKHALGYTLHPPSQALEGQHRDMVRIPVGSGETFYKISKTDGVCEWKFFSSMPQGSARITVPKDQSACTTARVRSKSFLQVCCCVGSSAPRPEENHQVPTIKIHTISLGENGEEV

[2] = target: T2, Alpha-1B adrenergic receptor (Homo sapiens, UniProt P35368); assay: Binding affinity at human cloned Alpha-1B adrenergic receptor in chinese hamster ovary cells by [3H]prazosin displacement.; type: cell-based, CHO
T2 sequence (P35368 whole entry): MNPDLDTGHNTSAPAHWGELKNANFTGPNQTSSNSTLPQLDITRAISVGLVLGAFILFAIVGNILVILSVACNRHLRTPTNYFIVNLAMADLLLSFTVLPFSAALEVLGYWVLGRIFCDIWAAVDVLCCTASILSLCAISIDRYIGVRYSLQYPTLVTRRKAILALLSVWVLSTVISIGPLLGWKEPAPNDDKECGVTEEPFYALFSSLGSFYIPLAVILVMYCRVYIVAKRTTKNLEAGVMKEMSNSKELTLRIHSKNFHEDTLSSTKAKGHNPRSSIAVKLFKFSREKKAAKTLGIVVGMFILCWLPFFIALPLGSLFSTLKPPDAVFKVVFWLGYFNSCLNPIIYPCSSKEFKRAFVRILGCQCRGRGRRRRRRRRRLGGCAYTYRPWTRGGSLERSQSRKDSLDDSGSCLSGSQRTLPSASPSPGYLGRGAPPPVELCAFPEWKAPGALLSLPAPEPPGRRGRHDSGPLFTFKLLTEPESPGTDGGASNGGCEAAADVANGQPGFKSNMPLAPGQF

[3] = target: T3, Alpha-1D adrenergic receptor (Rattus norvegicus, UniProt P23944); assay: Antagonism of norepinephrine induced contraction of rat isolated thoracic aorta.; type: functional, tissue-based; settings: read-out: pA2 (converted)
T3 sequence (P23944 whole entry): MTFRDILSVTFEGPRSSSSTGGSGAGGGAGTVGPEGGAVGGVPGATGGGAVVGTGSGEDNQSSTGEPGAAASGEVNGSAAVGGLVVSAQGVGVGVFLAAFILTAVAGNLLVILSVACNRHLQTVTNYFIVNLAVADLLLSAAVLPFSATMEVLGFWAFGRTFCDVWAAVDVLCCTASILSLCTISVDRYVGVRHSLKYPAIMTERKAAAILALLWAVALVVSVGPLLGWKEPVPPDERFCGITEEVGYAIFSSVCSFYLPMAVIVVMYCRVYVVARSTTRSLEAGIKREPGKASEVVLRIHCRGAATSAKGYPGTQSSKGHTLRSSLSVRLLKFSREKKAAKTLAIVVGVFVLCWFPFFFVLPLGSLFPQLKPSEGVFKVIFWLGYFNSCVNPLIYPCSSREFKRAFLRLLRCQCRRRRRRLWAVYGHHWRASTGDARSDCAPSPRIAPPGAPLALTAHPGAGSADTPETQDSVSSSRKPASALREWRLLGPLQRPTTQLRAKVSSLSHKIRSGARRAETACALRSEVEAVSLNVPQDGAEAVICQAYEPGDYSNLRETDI

[4] = target: T4, Alpha-1A adrenergic receptor (Homo sapiens, UniProt P35348); assay: Binding affinity at human cloned Alpha-1A adrenergic receptor in chinese hamster ovary cells by [3H]-prazosin displacement.; type: cell-based, CHO
T4 sequence (P35348 whole entry): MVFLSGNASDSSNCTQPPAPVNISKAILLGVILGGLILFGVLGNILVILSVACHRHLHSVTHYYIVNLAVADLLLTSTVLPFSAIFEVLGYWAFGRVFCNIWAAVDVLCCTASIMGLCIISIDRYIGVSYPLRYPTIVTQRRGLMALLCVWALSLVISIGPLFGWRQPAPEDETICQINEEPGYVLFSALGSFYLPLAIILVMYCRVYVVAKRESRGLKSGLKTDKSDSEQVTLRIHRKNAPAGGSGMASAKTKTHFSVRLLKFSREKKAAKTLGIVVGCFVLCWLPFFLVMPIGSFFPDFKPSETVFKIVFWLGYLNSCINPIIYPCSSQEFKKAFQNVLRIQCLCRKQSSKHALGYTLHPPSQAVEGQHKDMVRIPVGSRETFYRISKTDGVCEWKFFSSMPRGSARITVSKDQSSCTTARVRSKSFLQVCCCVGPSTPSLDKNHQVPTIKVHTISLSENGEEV

- Kb [1]: 55 nM
- Ki [2]: 0.166 nM
- Kb [3]: 5.5 nM
- Ki [4]: 0.324 nM
Structure (SMILES): COc1cc2nc(N(C)CCCCCCN(C)C(=O)c3cccc(CN(C)C)c3)nc(N)c2cc1OC
